Data on 1 compound can be found in PMC10226046, “Prodrug Strategies for the Development of β-L-5-((E)-2-Bromovinyl)-1-((2S,4S)-2-(hydroxymethyl)-1,3-(dioxolane-4-yl))uracil (L-BHDU) against Varicella Zoster Virus (VZV)” (Journal of Medicinal Chemistry, 2023).

Read-outs that look alike come from different tables or passages of the source.

For one series, the system named is VZV-ORF57-ΔTK. The series can be described thus: microbe, parasite or virus in culture. The class given is cell-based, Varicella zoster virus. The conditions noted are these: Human alphaherpesvirus 3, ARPE-19.
Series [1] in a line: Oral pharmacokinetic absorption study in BALB/c mice (plasma, LC-MS/MS). Format: in vivo. The conditions noted are these: after oral 22.5 mg/kg POM-L-BHDU-MP, LC/MS. On the procedure: A pharmacokinetic absorption study was performed in BALB/c mice (Charles River). A single equimolar dose of 22.5 mg/kg POM-L-BHDU-MP or 11.4 mg/kg L-BHDU was dissolved in Cremophor–dimethyl sulfoxide (DMSO)–saline (1:1:8) and administered by oral gavage to two groups of mice with equal numbers of male and female mice (N = 15 each male and female).
Plasma was separated from red blood cells and immediately frozen at −80 °C.
This animal protocol #282 was approved by the IACUC at SUNY Upstate Medical University, which has been fully accredited by AAALAC since 7/31/1999. This method was previously used to evaluate L-BHDU effects on 5-fluorouracil metabolism.[16] Briefly, a single equimolar dose of 22.5 mg/kg POM-L-BHDU-MP or 11.4 mg/kg L-BHDU was dissolved in Cremophor–DMSO–saline (1:1:8) and administered by oral gavage to two groups of BALB/c mice (Charles River) with equal numbers of male and female mice (N = 15 each male and female). Six untreated mice were used for blank controls and were labeled time 0. At 20, 40, 60, and 120 min, three mice from the POM-L-BHDU-MP group and three mice from the L-BHDU group were anesthetized with inhaled isoflurane and then exsanguinated by cardiac puncture. Blood samples were collected into a tube containing heparin. Plasma was separated from red blood cells by centrifugation at 10,000 rpm for 5 min. Plasma was transferred to a new tube and immediately frozen at −80 °C.
Plasma samples were thawed, and exactly 0.95 mL was removed for analysis. The internal standard azidothymidine was added to mouse plasma samples at a final concentration of 20 ng/mL. Proteins were precipitated from the plasma by adding 2× volumes of methanol, then the samples were clarified by centrifugation. The supernatants were dried using an N-EVAP 116 analytical nitrogen evaporator and then reconstituted with 50% methanol in water. LC-MS/MS was used to analyze the concentrations of POM-L-BHDU-MP, L-BHDU, and L-BHDU-MP. Calibration curves were made using BALB/c mouse plasma (Innovative Research, Inc. Novi MI) prior to analyzing the experimental samples.
The primary stock solutions for the calibration were prepared at 0.5 mg/mL for L-BHDU, 1 mg/mL for POM-L-BHDU-MP, and 1 mg/mL for L-BHDU-MP. The primary stock solutions were diluted to working solutions that were in turn used to spike the biological matrix of interest. L-BHDU calibration points were 100.0, 400.0, 800.0, 1000.0, 4000.0, 6000.0, 8000.0, 10,000.0, and 12,000.0 ng/mL. L-BHDU-MP calibration points were 100.0, 200.0, 400.0, 800.0, 1000.0, 2000.0, 4000.0, 6000.0, and 8000.0 ng/mL. The ISTD working solution of AZT was prepared at 20 ng/mL. The standard stock solutions were stored in −80 °C freezer until used. […] The samples were analyzed in a negative ESI mode. […]

Series [2] can be described thus: Stability in gastric and intestinal juice. Format: in vitro ADME. The conditions noted are these: data not shown.
In series [3] the test system is VZV-ORF57-Luc. The series can be described thus: microbe, parasite or virus in culture. Format: cell-based, Varicella zoster virus. The settings on record: Human alphaherpesvirus 3, ARPE-19.
In series [4] the test system is VZV-ORF57-Luc. The series can be described thus: microbe, parasite or virus in culture. The settings on record: Human alphaherpesvirus 3, ARPE-19, cell-free VZV-ORF57-Luc, ARPE-19 cells, 72 hpi, bioluminescence imaging.
The subject of series [5] is VZV-ORF57-Luc. The settings on record: for EC50: cell-free VZV-ORF57-Luc, ARPE-19 cells, 72 hpi, bioluminescence imaging.
Series [6] in a line: Neutral red dye uptake cytotoxicity assay in ARPE-19 cells. The conditions noted are these: human.
Another series has as its system VZV-ORF57-ΔTKTS. The series can be described thus: microbe, parasite or virus in culture. The class given is cell-based, Varicella zoster virus. The settings on record: Human alphaherpesvirus 3, ARPE-19.
The next series has as its system VZV-ORF57-ΔTS. Briefly: microbe, parasite or virus in culture. Format: cell-based, Varicella zoster virus. The settings on record: Human alphaherpesvirus 3, ARPE-19.

As a reminder, the EC50 is the concentration giving half of the maximal effect. A higher EC50 goes with weaker potency. A word on the CC50: it is the concentration giving 50% cytotoxicity. A higher CC50 goes with better tolerance by the cells. Turning to `CC(C)(C)C(=O)OCOP(=O)(OCOC(=O)C(C)(C)C)OC[C@H]1OC[C@@H](n2cc(/C=C/Br)c(=O)[nH]c2=O)O1` [POM-L-BHDU-MP (41), Bis(POM) Prodrug of L-BHDU-MP], the EC50 is above 2000 nM in the series with VZV-ORF57-ΔTK; 51 nM in the series on VZV-ORF57-Luc [3]; 35 nM with VZV-ORF57-Luc [4]; 35.6 nM in the series with VZV-ORF57-Luc [5]; 36 nM in the series with VZV-ORF57-Luc [5] (listed as POM-L-BHDU-MP); above 2000 nM in the series with VZV-ORF57-ΔTKTS. In the series with VZV-ORF57-ΔTS, this compound gave an EC50 of 1.2 nM. Besides, in series [1], the “L-BHDU-MP detected in plasma” value is “below the limit of quantitation”. The “stability in gastric and intestinal juice” value in series [2] is reported as “good stability”. In addition, the “SI (CC50/EC50)” value in the series on VZV-ORF57-Luc [5] was above 2809; in the series with VZV-ORF57-Luc [5] (selectivity index = CC50/EC50, ARPE-19 cells), above 2809; in the series on VZV-ORF57-Luc [5] (selectivity index = CC50/EC50, ARPE-19 cells, listed as POM-L-BHDU-MP), above 2809. In addition, the CC50 at 72 h in [6] was above 100000 nM.
